# What was measured:
# MTB-PPX1 (Rv0496) [1] = target: T1, MTB-PPX1 (Rv0496) (Mycobacterium tuberculosis, UniProt P9WHV5)
# Rv1026 = target: T2, Rv1026 (Mycobacterium tuberculosis, UniProt P96374)
# T2 construct: gene ppx2
# MTB-PPX1 (Rv0496) [2] = target: T1, MTB-PPX1 (Rv0496); remark: listed apart in the source
# T1 sequence (P9WHV5 whole entry): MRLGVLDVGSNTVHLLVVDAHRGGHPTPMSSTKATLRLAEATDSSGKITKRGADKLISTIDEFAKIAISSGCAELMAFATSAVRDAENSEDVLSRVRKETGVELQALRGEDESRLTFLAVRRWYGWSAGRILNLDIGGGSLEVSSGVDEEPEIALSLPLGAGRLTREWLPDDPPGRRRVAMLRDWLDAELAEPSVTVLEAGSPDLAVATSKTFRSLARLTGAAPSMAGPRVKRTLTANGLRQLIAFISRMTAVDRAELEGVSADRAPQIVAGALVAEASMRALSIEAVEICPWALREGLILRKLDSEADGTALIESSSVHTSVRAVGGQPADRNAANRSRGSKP
# T2 sequence (P96374 whole entry): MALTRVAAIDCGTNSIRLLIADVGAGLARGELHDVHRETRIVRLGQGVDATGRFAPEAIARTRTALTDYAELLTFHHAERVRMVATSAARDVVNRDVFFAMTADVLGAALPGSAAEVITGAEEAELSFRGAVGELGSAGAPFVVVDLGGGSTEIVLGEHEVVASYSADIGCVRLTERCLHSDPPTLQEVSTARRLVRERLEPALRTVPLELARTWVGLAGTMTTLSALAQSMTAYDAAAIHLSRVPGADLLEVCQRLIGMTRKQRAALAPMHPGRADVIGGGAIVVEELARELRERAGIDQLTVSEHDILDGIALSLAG
Compound,Exopolyphosphatase activities / +1 mM ppGpp / (% decrease) / ATPase activities (MTB-PPX1 (Rv0496) [1]) [%],Exopolyphosphatase activities / +1 mM pppGpp / (% decrease) / ATPase activities (Rv1026) [%],Exopolyphosphatase activities / +1 mM pppGpp / (% decrease) / ATPase activities (MTB-PPX1 (Rv0496) [2]) [%]
"Nc1nc2c(ncn2[C@@H]2O[C@H](COP(=O)(O)OP(=O)(O)O)[C@@H](OP(=O)(O)OP(=O)(O)O)[C@H]2O)c(=O)[nH]1 [ppGpp, guanosine 3′,5′-bisdiphosphate]",5.9±0.7,,
"Nc1nc2c(ncn2[C@@H]2O[C@H](COP(=O)(O)OP(=O)(O)OP(=O)(O)O)[C@@H](OP(=O)(O)OP(=O)(O)O)[C@H]2O)c(=O)[nH]1 [pppGpp, guanosine 5′-triphosphate, 3′-diphosphate]",,32.3±9.4,37.9±6.7

# Source: publication PMC3411833, “The Two PPX-GppA Homologues from Mycobacterium tuberculosis Have Distinct Biochemical Activities” (PLoS ONE, 2012)
